Among the data in US11667675B2, “MASP inhibitory compounds and uses thereof” (Bayer Aktiengesellschaft, priority 2019, dated 2023) are IC50 values, retold here.

Usually pIC50 stands for −log10 of the IC50, conventionally taken in molar units.

pIC50: −log10 of the molar value. Counter-ions that a name gives are not always drawn. Numbered stars: 1 amine (or outer) side, 2 acyl side, 3 side chain; on linkers, the order of the positions; unused ones are H or OH. Bridge positions count the residues as written; N and C are the ends. Square brackets hold non-standard residues; d marks the D form. Peptide text beside a SMILES is read from it. * marks the point of attachment. X1 = O=C(C1[C@H]2CCCC[C@H]2C[C@H]1C(=O)[*:2])[C@@H]1CCCN1[*:1]; Oic = O=C(O)[C@@H]1C[C@@H]2CCCC[C@@H]2N1; Pen = CC(C)(S)[C@H](N)C(=O)O; X2 = N[C@@H](CN*)C(=O)O; Sar = CNCC(=O)O

For assay [1], the target named is T1, rat MASP1 (Rattus norvegicus, UniProt Q8CHN8).
T1 construct: Ig-kappa secretion signal (N, cleaved yes); made in house; host or cells: HEK293 (ATCC No. CRL-1573)
T1 sequence (Q8CHN8 302-453 limits assumed): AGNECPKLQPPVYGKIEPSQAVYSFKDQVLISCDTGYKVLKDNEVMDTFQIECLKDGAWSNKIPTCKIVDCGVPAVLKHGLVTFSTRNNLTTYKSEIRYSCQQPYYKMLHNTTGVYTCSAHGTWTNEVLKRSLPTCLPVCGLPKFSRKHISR
T1 sequence (Q8CHN8 454-704 limits assumed): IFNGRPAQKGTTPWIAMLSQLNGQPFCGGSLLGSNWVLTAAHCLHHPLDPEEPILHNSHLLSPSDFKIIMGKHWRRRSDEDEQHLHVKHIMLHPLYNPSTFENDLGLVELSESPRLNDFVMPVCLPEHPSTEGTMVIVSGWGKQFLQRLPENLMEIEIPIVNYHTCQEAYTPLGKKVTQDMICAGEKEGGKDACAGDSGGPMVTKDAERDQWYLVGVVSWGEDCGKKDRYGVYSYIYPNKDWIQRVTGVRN
Briefly: Biochemical rat MASP1 assay (FRET substrate). The conditions noted are these: average IC50; recombinant rat MASP1, FRET substrate. An excerpt: (§1) 4. Biochemical Rat MASP-1 and MASP-2 Assay
(§2) 4.1 Recombinant Expression and Protein Production of Recombinant Human and Rat MASP1 and MASP2 Active Proteases.
A truncated cDNA sequence of rat MASP1 encoding the fragment corresponding to the amino acids 302-704 with an C-terminal His Tag and N-terminal Ig-kappa secretion signal (SEQ ID No: 4) was subcloned into the mammalian expression vector pcDNA3.1 (Invitrogen).
(§3) The MASP1 or MASP2 expression vectors were transfected into the HEK293 (ATCC No. CRL-1573) cell line using Lipofectamine LTX® Reagent (Thermo-Fischer), as described by the manufacturer. The mature form of the recombinant rat MASP1 and MASP2 proteases were secreted into the culture medium. The MASP1 and MASP2 proteins were purified from the conditioned media by affinity chromatography on Ni-NTA Superflow resin (Qiagen) as described by the manufacturer.
4.2 Biochemical Rat MASP1 Assay.
Recombinant rat MASP1 enzyme produced in the HEK 293 cells was diluted in the reaction buffer (50 mM HEPES pH 8,0; 100 mM NaCl; 0.01% CHAPS; 0.5 mM Gluthathione) to the concentration of 4 nM and 25 μl was transferred into each single well of 384-well white microtiter plate (Greiner Bio One 781075). 1 μl of the inhibitor compound solution (dissolved in DMSO, at the corresponding concentration) or pure DMSO as a control was added to the same wells. The enzymatic reaction was initiated by addition of 25 μl of 40 μM solution of the FRET substrate Dabcyl-[…]-Glu(Edans)-NH2 (SEQ ID NO: 8); (Dabcyl—4-((4-(dimethylamino)phenyl)azo)benzoic acid; Edans—5-[(2-Aminoethyl) amino]naphthalene-1-sulfonyl; custom synthesis by Jerini Peptide Technologies, Berlin) in the reaction buffer. The microtiter plate was incubated for 60-120 min at the temperature of 32 C. The increase of fluorescence intensity was measured in appropriate fluorescence plate reader (e.g. TECAN Ultra) using excitation wavelength of 340 nm and emission wavelength of 490 nm. IC50 values were calculated from percentage of inhibition of rat […] activity as a function of test compound concentration.

Assay [2] concerns Human C3-[…]. In words: C3 deposition assay, human serum on mannan-coated plates. The assay is classed as biochemical. The note with it: average IC50, read-out: Human C3-DEPOSITION SERUM IC50. Here is the method: 3. C3 Deposition Assay (Human, Rat, Mouse, Dog, Mini-Pig)
The C3 deposition assay was conducted essentially as described (reference). Multi well plates (Greiner-Nunc 384 Maxi Sorp #464718) were coated over night with Mannan from Saccharomyces cerevisiae (Sigma M7504, 10 μg/mL in 0.05 M carbonate-bicarbonate buffer, pH 9.6) at 4° C. Wells were washed three times with TBS and subsequently incubated for 2 hours with 50 μL of 1% bovine serum albumin (BSA) in Tris-buffered saline (TBS) at 37° C. in order to block non-specific binding. After this step and each of the following incubation steps wells were washed three times with C3 wash buffer (TBS; 0.05% Tween 20; 5 mM CaCl2). […] When appropriately developed the color reaction was stopped by addition of 25 μL of stop solution (Sigma S5814) and quantified on a photometer by measuring absorption at a wavelength of 450 nm. Antibodies were diluted in C3 wash buffer supplemented with 0.5% BSA.

For assay [3], the target named is T2, rat MASP2 (Rattus norvegicus, UniProt Q9JJS8).
T2 construct: Ig-kappa secretion signal (N, cleaved yes); made in house; host or cells: HEK293 (ATCC No. CRL-1573)
T2 sequence (Q9JJS8 296-443): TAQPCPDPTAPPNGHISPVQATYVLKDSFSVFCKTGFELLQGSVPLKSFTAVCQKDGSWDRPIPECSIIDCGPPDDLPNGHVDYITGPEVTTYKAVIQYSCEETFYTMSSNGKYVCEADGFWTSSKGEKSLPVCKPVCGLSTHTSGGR
T2 sequence (Q9JJS8 444-685): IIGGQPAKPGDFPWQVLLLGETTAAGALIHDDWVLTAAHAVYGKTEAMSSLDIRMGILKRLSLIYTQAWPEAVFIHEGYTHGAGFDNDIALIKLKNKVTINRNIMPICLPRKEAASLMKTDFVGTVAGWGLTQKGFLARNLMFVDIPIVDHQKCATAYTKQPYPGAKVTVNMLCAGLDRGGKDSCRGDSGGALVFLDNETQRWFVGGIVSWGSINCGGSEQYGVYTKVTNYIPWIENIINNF
Briefly: Biochemical rat MASP2 assay (FRET substrate). The note with it: average IC50; recombinant rat MASP2, FRET substrate.
From the text: as §1, §2, §3
4.3 Biochemical Rat MASP2 Assay.
Recombinant rat MASP2 enzyme produced in the HEK 293 cells was diluted in the reaction buffer (50 mM HEPES pH 8,0; 100 mM NaCl; 0.01% CHAPS; 0.5 mM Gluthathione) to the concentration of 20 nM and 25 μl was transferred into each single well of 384-well white microtiter plate (Greiner Bio One 781075). 1 μl of the inhibitor compound solution (dissolved in DMSO, at the corresponding concentration) or pure DMSO as a control was added to the same wells. The enzymatic reaction was initiated by addition of 25 μl of 30 μM solution of the FRET substrate Abz-IEGRTSED-(Lys)Dnp-NH2 (SEQ ID NO: 9); (ABZ—2-aminobenzoyl; DNP_2,4-dinitrophenyl; custom synthesis by Jerini Peptide Technologies, Berlin) in the reaction buffer. The microtiter plate was incubated for 60-120 min at the temperature of 32 C. The increase of fluorescence intensity was measured in appropriate fluorescence plate reader (e.g. TECAN Ultra) using excitation wavelength of 320 nm and emission wavelength of 420 nm. IC50 values were calculated from percentage of inhibition of rat […] activity as a function of test compound concentration.

For `CC[C@H](C)[C@H](NC(=O)[C@H](C)NC)C(=O)N[C@H]1CSSC(C)(C)[C@@H](C(=O)N[C@H](C(=O)N2CCC[C@H]2C(N)=O)[C@@H](C)CC)NC(=O)[C@H]([C@@H](C)CC)NC(=O)[C@@H]2C[C@@]3(CN2C(=O)[C@@H]2CCCN2C(=O)[C@@H](CC(C)(C)C)NC(=O)[C@H](CO)NC(=O)[C@H](CCCNC(=N)N)NC(=O)[C@H](CO)NC1=O)CC3(F)F` (single isomer, unassigned; enantiomer 1) [Example 443], the pIC50 was 7.54 in assay [1], 7.60 in assay [2] and 8.33 in assay [3].

In the case of `CC[C@H](C)[C@H](NC(=O)CNC)C(=O)N[C@H]1CSSC(C)(C)[C@@H](C(=O)N[C@H](C(=O)N2CCC[C@H]2C(N)=O)[C@@H](C)CC)NC(=O)[C@H]([C@@H](C)CC)NC(=O)[C@@H]2C[C@@H]3CCCC[C@@H]3N2C(=O)[C@@H]2CCCN2C(=O)[C@H](CC(C)C)NC(=O)[C@H](CO)NC(=O)[C@H](CCCNC(=N)N)NC(=O)[C@H](CO)NC1=O` [Example 109, ((N-Me)G)-IC+SRSLP-(Oic)-I-(Pen)+IP-NH2] (H-[Sar]ICSRSLP[Oic]I[Pen]IP-NH2; disulfide 3-11), the values for the pIC50 in assay [1], in assay [2] and in assay [3] were 7.12, 6.87 and 7.38, respectively.

`[2H][C@@H]1[C@H]([2H])CN2C(=O)[C@H](CC(C)C)NC(=O)[C@H](CO)NC(=O)[C@H](CCCNC(=N)N)NC(=O)[C@H](CO)NC(=O)[C@@H](NC(=O)[C@@H](NC(=O)[C@H](C)N)[C@@H](C)CC)CSSC(C)(C)[C@@H](C(=O)N[C@H](C(=O)N3CCC[C@H]3C(=O)N[C@@H](CC(=O)O)C(=O)O)[C@@H](C)CC)NC(=O)[C@H]([C@@H](C)CC)NC(=O)[C@@H]3C[C@@H]4CCCC[C@@H]4N3C(=O)[C@H]12` [Example 142, N-[(1R,2S,6S,9S,12S,15S,18R,23R,26S,28aS,35aS)-18-[(L-alanyl-L-isoleucyl)amino]-26-[(2S)-butan-2-yl]-12-(3-carbamimidamidopropyl)-9,15-bis(hydroxymethyl)-22,22-dimethyl-6-(2-methylpropyl)-5,8,11,14,17,25,28,35-octaoxo(1,2-^2H2)dotriacontahydro-1H,5H,22H-pyrrolo[2′,1′:13,14][1,2,5,8,11,14,17,20,23,26]dithiaoctaazacyclononacosino[11,10-a]indole-23-carbonyl]-L-isoleucyl-L-prolyl-L-aspartic Acid]: the negative logarithm of the IC50 (pIC50) was 7.96 in assay [1], 7.91 in assay [2] and 7.77 in assay [3].

In the case of `CC[C@H](C)[C@H](NC(=O)CNC)C(=O)N[C@H]1CSSC(C)(C)[C@@H](C(=O)N[C@H](C(=O)N2CCC[C@H]2C(N)=O)[C@@H](C)CC)NC(=O)[C@H]([C@@H](C)CC)NC(=O)[C@@H]2C[C@@H]3CCCC[C@@H]3C2C(=O)[C@@H]2CCCN2C(=O)[C@H](CC(C)C)NC(=O)[C@H](CO)NC(=O)[C@H](CCCNC(=N)N)NC(=O)[C@H](CO)NC1=O` (stereo partly drawn) [Example 67, ((N-Me)G)-IC+SRSLP-(Oic)-I-(Pen)+IP-NH2 (HCl Salt)] (H-[Sar]ICSRSL[X1]I[Pen]IP-NH2; disulfide 3-10), the results for the pIC50 in assay [1], in assay [2] and in assay [3] were 7.14, 6.92 and 7.44, respectively.

Regarding `CC[C@H](C)[C@H](NC(=O)[C@H](C)N)C(=O)N[C@H]1CSSC[C@@H](C(=O)N[C@H](C(=O)N2CCC[C@H]2C(=O)N[C@@H](CC(=O)O)C(N)=O)[C@@H](C)CC)N(C)C(=O)[C@H]([C@@H](C)CC)NC(=O)[C@@H]2C[C@@H]3CCCC[C@@H]3N2C(=O)[C@@H]2CCCN2C(=O)[C@H](CC(C)C)NC(=O)[C@H](CO)NC(=O)[C@H](CCCNC(=N)N)NC(=O)[C@H](CO)NC1=O` [Example 185, AIC+SRSLP-(Oic)-I-((N-Me)C)+IPD-NH2], the pIC50 was 7.24 in assay [1], 8.17 in assay [2] and 7.96 in assay [3].

Turning to `CC[C@H](C)[C@H](NC(=O)CNC)C(=O)N[C@H]1CSSC(C)(C)[C@@H](C(=O)N[C@H](C(=O)N2CCC[C@H]2C(=O)NC[C@H](N)C(=O)O)[C@@H](C)CC)NC(=O)[C@H]([C@@H](C)CC)NC(=O)[C@@H]2C[C@@H]3CCCC[C@@H]3N2C(=O)[C@@H]2CCCN2C(=O)[C@H](CC(C)C)NC(=O)[C@H](CO)NC(=O)[C@H](CCCNC(=N)N)NC(=O)[C@H](CO)NC1=O` [Example 467] (H-[Sar]ICSRSLP[Oic]I[Pen]IP-X2; disulfide 3-11), the pIC50 in assay [1] is 6.77; in assay [2], 7.38; in assay [3] it was 7.15.

Turning to `CC[C@H](C)[C@H](NC(=O)CNC)C(=O)N[C@H]1CSSC(C)(C)[C@@H](C(=O)N[C@H](C(=O)N2CCC[C@H]2C(=O)N[C@@H](CC(=O)O)C(=O)N[C@@H](CC(=O)O)C(=O)O)[C@@H](C)CC)NC(=O)[C@H]([C@@H](C)CC)NC(=O)[C@@H]2C[C@@H]3CCCC[C@@H]3N2C(=O)[C@@H]2CCCN2C(=O)[C@H](CC(C)C)NC(=O)[C@H](CO)NC(=O)[C@H](CCCNC(=N)N)NC(=O)[C@H](CO)NC1=O` [Example 466, ((N-Me)G)-IC+SRSLP-(Oic)-I-(Pen)+IPDD-OH] (H-[Sar]ICSRSLP[Oic]I[Pen]IPDD-OH; disulfide 3-11), the pIC50 in assay [1] is 7.75; in assay [2] it was 7.15; in assay [3], 7.14.
